According to ChEMBL document CHEMBL1154051, “Analysis of binding parameters of HIV-1 integrase inhibitors: correlates of drug inhibition and resistance” (Bioorg Med Chem, 2009):

Biological target: Human immunodeficiency virus type 1 integrase (Human immunodeficiency virus 1, UniProt Q7ZJM1)
Experiment: Inhibition of HIV1 integrase strand transfer activity

Chain of Human immunodeficiency virus type 1 integrase (Q7ZJM1 whole entry): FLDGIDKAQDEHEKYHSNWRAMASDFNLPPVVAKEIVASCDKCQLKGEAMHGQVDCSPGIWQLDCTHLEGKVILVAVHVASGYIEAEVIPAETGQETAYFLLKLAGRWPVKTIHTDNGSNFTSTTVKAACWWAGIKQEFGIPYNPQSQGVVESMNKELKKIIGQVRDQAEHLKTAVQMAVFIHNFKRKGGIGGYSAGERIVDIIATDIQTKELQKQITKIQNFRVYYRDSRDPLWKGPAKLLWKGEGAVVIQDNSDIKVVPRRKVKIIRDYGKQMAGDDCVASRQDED

For `O=C(O)/C(O)=C/C(=O)c1cccc(Cc2ccccc2F)c1`, the IC50 was less than 100 nM.
`CC(=O)N(C)c1cc(C(=O)NCc2ccc(F)cc2)c(O)c2ncccc12` showed an IC50 of 20 nM.
In the case of `COc1ccc(Cc2cccc(C(=O)/C=C(\O)C(=O)O)c2)cc1`, the IC50 is reported as 150 nM.
Compound `COc1cccc(Cc2cccc(C(=O)/C=C(\O)C(=O)O)c2)c1` has an IC50 of 140 nM.
Work on `O=C1c2c(c(-c3c(F)cccc3F)c3cccnc3c2O)CN1Cc1ccc(F)cc1` yielded an IC50 of 330 nM.
In the case of `O=C(O)/C(O)=C/C(=O)c1cccc(Cc2ccccc2Cl)c1`, the IC50 is reported as less than 100 nM.
`O=C(O)/C(O)=C/C(=O)c1cccc(Cc2ccc(F)cc2)c1` was tested, and the IC50 was less than 100 nM.
In the case of `O=C(O)/C(O)=C/C(=O)c1cccc(Cc2ccc(Cl)cc2)c1`, the IC50 is reported as 750 nM.
Work on `CC(=O)N1CCN(c2cc(C(=O)NCc3ccc(F)cc3)c(O)c3ncccc23)CC1` yielded an IC50 of 20 nM.
`COc1cnc2c(O)c3c(c(OC)c2c1)CN(Cc1ccc(F)cc1)C3=O` was tested, and the IC50 was 90 nM.
Work on `O=C(/C=C(\O)C(=O)O)C(=O)c1cccc(C(=O)c2ccccc2)c1` yielded an IC50 of 2400 nM.
`O=C(O)/C(O)=C/C(=O)C1C=CSC1Cc1ccccc1` (stereo not drawn) was tested, and the IC50 was 180 nM.
`[N-]=[N+]=NCc1cccc(C(=O)/C=C(\O)C(=O)O)c1` showed an IC50 of 330 nM.
Compound `O=C(O)/C(O)=C/C(=O)c1ccc(Oc2ccccc2)cc1` has an IC50 of 11400 nM.
Compound `O=C(O)/C(O)=C/C(=O)c1ccccc1Cc1ccccc1` has an IC50 of 5670 nM.
For `CN1CCN(c2cc(C(=O)NCc3ccc(F)cc3)c(O)c3ncccc23)CC1`, the IC50 was 40 nM.
`O=C(NCc1ccc(F)cc1)c1ccc2cccnc2c1O` gave an IC50 of 30 nM.
In the case of `[N-]=[N+]=NCc1cc(CN=[N+]=[N-])cc(C(=O)/C=C(\O)C(=O)O)c1`, the IC50 is reported as 460 nM.
Work on `O=C(O)/C(O)=C/C(=O)c1cccc(Br)c1` yielded an IC50 of 2500 nM.
Work on `O=C(O)/C(O)=C/C(=O)c1cccc(OCc2ccccc2)c1` yielded an IC50 of 350 nM.
`O=C(O)/C(O)=C/C(=O)c1cc(OCc2ccccc2)cc(OCc2ccccc2)c1` was tested, and the IC50 was 100 nM.
With `O=C(O)/C(O)=C/C(=O)c1csc(Cc2ccccc2)c1` the IC50 was 130 nM.
`O=C1c2c(c(C(=O)N3CCOCC3)c3cccnc3c2O)CN1Cc1ccc(F)cc1` gave an IC50 of 40 nM.
`O=C(O)/C(O)=C/C(=O)c1cccn1CCCc1ccccc1` showed an IC50 of 500 nM.
Work on `CC(=O)N(C)CCNc1cc(C(=O)NCc2ccc(F)cc2)c(O)c2ncccc12` yielded an IC50 of 30 nM.
`O=C(O)/C(O)=C/C(=O)c1ccn(Cc2ccccc2)c1` showed an IC50 of 550 nM.
In the case of `O=C(O)/C(O)=C/C(=O)c1cccn1Cc1ccccc1`, the IC50 is reported as 220 nM.
For `CN(C)S(=O)(=O)Oc1c2c(c(O)c3ncccc13)C(=O)N(Cc1ccc(F)cc1)C2`, the IC50 was 250 nM.
Compound `O=C(O)/C(O)=C/C(=O)c1cccc(Cc2cccc(Cl)c2)c1` has an IC50 of less than 100 nM.
`O=C(O)/C(O)=C/C(=O)c1ccc(Cc2ccccc2)s1` showed an IC50 of 500 nM.
`CN(C)C(=O)C(=O)N(C)c1cc(C(=O)NCc2ccc(F)cc2)c(O)c2ncccc12` gave an IC50 of 40 nM.
In the case of `O=C(O)/C(O)=C/C(=O)c1cccc(Cc2cccc(F)c2)c1`, the IC50 is reported as 250 nM.
`O=C(O)/C(O)=C/C(=O)c1cccn1Cc1ccc(-c2ccccc2)cc1` was tested, and the IC50 was 7500 nM.
